“Also recorded” adds a separate entry of the source.
Assays:
Format in all cases: in vivo, mouse
[1] = system: hypoxia-induced pulmonary hypertension in C57BL/6 male mice; assay: Blocking/prevention of hypoxia-induced pulmonary hypertension (dosing prior to and during hypoxia); conditions: 18th day of hypoxia
Experimental: Ultrasound measurements were acquired using the following protocol. Mice were anesthetized, placed in a supine position on a heated platform (THM 100, Indus Instruments) and 2D imaging of the pulmonary infundibulum (B- and M-mode) was carried out using a Vevo 2100 ultrasound system (VisualSonics). Images were obtained from the parasternal short-axis view at the level of the aortic valve. Pulsed-wave Doppler measurements were obtained at the tip of the pulmonary valve leaflets once the scanhead was aligned for maximal laminar flow. In addition, M-mode recordings of the right ventricle were acquired at the short axis B-mode imaging plane to obtain right ventricular free-wall dynamics through the cardiac cycle.
Ultrasound data analysis, performed in a blinded manner, analyzed the following parameters: Diastolic and systolic right ventricular free-wall thickness (RVFW, short axis M-mode), pulmonary artery diameter at end-systole (short axis B-mode), and pulmonary artery flow (PA flow, PW Doppler). From these measurements, time-velocity integral of pulmonary flow, pulmonary artery cross-sectional area (PA CSA), and right ventricle cardiac output (RV CO) were calculated. Means and standard errors of the mean were calculated for measurements at each time point, for each treatment group. All measurements were averaged on 3 cardiac cycles. Right ventricular pressures at 21 days of hypoxia were recorded using the following protocol: Mice were anesthetized, placed in the supine position on a heated platform (Water-jacketed pad heated with a Gaymar heating pump) and an incision over the right common carotid artery and right jugular vein was made isolating the right jugular taking care not to damage the carotid artery and/or the Vagus nerve. […]
Right ventricular systolic pressure analysis was conducted using LabChart Pro software (ADInstruments) at approximately 60 second intervals of pressure tracing (following a 2 minute period of recording to allow for pressure stabilization). The parameters analyzed were RV diastolic and systolic pressures, heart rate and animal temperature. […]

[2] = system: bleomycin-induced pulmonary fibrosis in C57BL/6 male mice; conditions: 20 days post bleomycin; vs vehicle or isotype control
[3] = system: bleomycin-induced pulmonary fibrosis in C57BL/6 male mice
Experimental: Bleomycin-induced lung injury was used to model pulmonary fibrosis in 10-week-old C57BL/6 male mice. Bleomycin sulfate was administered via a single oropharyngeal dose (3.2 U/kg (2.0 mg/kg) in a 2.0 ml/kg volume). Untreated control mice received a transoral instillation of sterile 0.9% saline (2.0 ml/kg). Bosentan, an orally active non-selective antagonist of endothelin receptor-A and -B, was used as a positive control for treatment, while vehicle and an irrelevant isotype matched antibody served as negative controls. Mice were allocated to treatment or control groups with dosing regimens as outlined in Table 11.
Each cage was randomly assigned to a therapeutic treatment group so all mice in the cage received the same treatment. Initial average body weight for each treatment group was similar. Daily body weights were recorded throughout the study. Group body weight average and percent change were analyzed and graphed.
Administration of bleomycin or saline was performed while animals were under anesthesia (isoflurane at a 3.5% to 2-liters/min oxygen flow rate). Sedated mice were placed on a 60-degree tilt board, head up with an elastic band around the incisors. A small cotton tip was used to roll tongue out of the mouth then forceps were used to hold tongue and to open the jaw. During a heavy inhalation, fluid was pipetted into the mouth. Tongue and jaw positions were maintained while mouse remained on the tilt board. Approximately 20 seconds elapsed after pipetting for fluid to disappear and “wheezing” to stop. After treatment instillation, mice were group-housed by treatment conditions (5 animals per cage) in disposable cages for 7 days because of excreted biohazard and then returned to home cages. Disposable cages differed from home cages only by use of a cage top bottle for water instead of use of Thoren rack watering system. All mice were housed in colony on 12 hr (7 am-7 pm) light-dark cycle.
Bosentan was administered by oral gavage twice daily (9:30 am and 6:30 pm) during the week. The initial pretreatment dose and weekend day doses were administered as a single combined BID. As outlined in Table 11, Bosentan dosing continued daily through day 20 of study while antibodies and vehicle were subcutaneously dosed every 3 days through day 18.
Pulmonary function was gauged by measuring arterial oxygen saturation using the Starr Life Sciences, MouseOx small animal vital signs monitor. Measurements were taken around the neck region following hair removal on Days 14 and 17. The MouseOx can monitor the cardio-pulmonary health and degree of lung injury by measuring the level of oxygen carried to the tissues on hemoglobin molecules in red blood cells. A throat collar sensor was used to measure arterial oxygen saturation via the carotid artery in conscious mice. Mice were lightly restrained by hand to confine subject to the cage top food hopper and to reduce movement. […] Once a continuous 15 second block is recorded, the software calculates the average of the above parameters. […] An average arterial oxygen saturation for each treatment group was calculated and analyzed using one-way ANOVA with Bonferroni post-test comparisons of all treatment groups.
On Day 21, mice were administered a terminal dose of Ketamine/Xylazine (120 mg/kg/5 mg/kg IP, respectively). […] Wet and dry lung weights and wet wt. to dry wt. ratios were calculated for each treatment group. […]

[4] = system: hypoxia-induced pulmonary hypertension in C57BL/6 male mice; assay: Treatment of hypoxia-induced pulmonary hypertension (dosing from Day 14 of hypoxia); conditions: dosing Days 14-21 of hypoxia; for Pulmonary Artery Cross-Sectional Area (PA CSA) / Right Ventricular Free Wall (RVFW) Thickening: 21st day; for Pulmonary Artery Cross-Sectional Area (PA CSA): FIG. 6; for Right Ventricular Free Wall (RVFW) Thickening: FIG. 7
Experimental: In this Example, the ability of anti-big-ET-1 antibody […] to treat hypoxia-induced pulmonary hypertension in mouse was evaluated. Experimental group animals were subjected to hypoxic conditions for 21 days (Day 1-21) and dosed with […], Bosentan, or control isotype antibody starting on Day 14. At Day 21, animals were evaluated using ultrasound images and measurements of ventricular pressures and cardiac hypertrophy (see Evaluation Materials and Methods in Example 7) and compared to control animals (maintained under normoxic conditions, hypoxia for 14 days, or hypoxia for 14 days followed by normoxia for 7 days). […] C57BL/6 male mice (10-11 weeks old) were weighed and treated or treated and dosed over a course of 21 days as outlined in Table 10. Bosentan was administered orally (PO); anti-big-ET-1 antibody […] and isotype control antibody were administered subcutaneously (SC). Body weights were consistent between groups over the course of this study. Bosentan, an orally active non-selective antagonist of endothelin receptor-A and -B, was used as a positive control while an irrelevant isotype-matched antibody served as the negative control. All procedures were approved by the Regeneron Institutional Animal Care and Use Committee (IACUC). Non-invasive ultrasound scanning was performed to determine pulmonary artery cross-sectional area (PA CSA), right ventricle cardiac output (RV CO) and right ventricular free wall thickness (RVFW) on the 21st day of hypoxia. Right ventricular diastolic and systolic pressures were acquired using a high-fidelity pressure catheter (Mikro-Tip®, Millar Instruments) in the right ventricle; in addition, right ventricular hypertrophy measurements (i.e., weight ratio of right ventricle-to-left ventricle+septum; Fulton Index) were measured at 21 days of hypoxia.

For `COc1ccccc1Oc1c(NS(=O)(=O)c2ccc(C(C)(C)C)cc2)nc(-c2ncccn2)nc1OCCO` [Bosentan, reference compound], the “Pulmonary Artery Cross-Sectional Area (PA CSA)” value ([1]; H4H6327P2 25 mg/kg SC every 3 days, Bosentan 300 mg/kg PO SID, FIG. 1) was “showed a similar yet reduced capacity to maintain basal PA CSA; also recorded: significantly lessen the reduction in PA CSA”, the “Right Ventricular Cardiac Output (RV CO)” value ([1]; preventive dosing, FIG. 2) was “showed a greater preservation of RV CO compared to the vehicle-treated group” and the “Right Ventricular Free Wall Thickness, systole (RVFW,s)” value ([1]; preventive dosing, FIG. 4) was “tends to reduce (not significant) the thickening of the RVFW”. For the same compound, the “arterial blood oxygen saturation (in words)” value [2] was “tended to restore arterial blood oxygen saturation closer to baseline levels”, the “lung wet weights (in words)” value ([3]; 21 days post bleomycin, vs isotype control) was “showed statistically significant reductions in wet lung weights” and the “Wet Weight Rt. Lung (mg) AVG ± SEM” value ([3]; bleomycin 3.2 U/kg, 21 days post bleomycin) was 117 ± 6 mg. For the same compound, the “% Arterial Blood 02 Saturation AVG ± SEM” value ([3]; bleomycin 3.2 U/kg, MouseOx throat collar sensor) was 93 ± 1%, the “Total Collagen Rt. Lung (ug) AVG ± SEM” value ([3]; bleomycin 3.2 U/kg, Sircol soluble collagen, Day 21) was 403 ± 38 µg and the “collagen accumulation in the lung (in words)” value ([3]; post bleomycin exposure) was “reduced collagen accumulation in the lung”. For the same compound, the “Pulmonary Artery Cross-Sectional Area (PA CSA)” value [4] was “significantly reverse the reduction in pulmonary artery cross-sectional area”, the “Pulmonary Artery Cross-Sectional Area (PA CSA)” value ([4]; listed as bosentan) was “lessened lumen diameter loss” and the “Right Ventricular Free Wall (RVFW) Thickening” value [4] was “significantly reverse right ventricular free wall (RVFW) thickening”. For the same compound, the “Right Ventricular Free Wall (RVFW) Thickening” value ([4]; listed as bosentan) was “attenuated right ventricular free wall (RVFW) thickening”, the “Distal Pulmonary Arteriole Wall Thickening” value ([4]; FIG. 5) was “significantly reverses distal pulmonary arteriole wall thickening” and the “Right Ventricular Cardiac Output (RV CO)” value ([4]; FIG. 9) was “Greater preservation of RV CO in bosentan-treated vs antibody-treated animals”. The “Right Ventricular Systolic Pressure (RVSP)” value ([4]; FIG. 10) was “tends to reduce the RVSP”.

Reference: US9751932B2, “Anti-big-endothelin-1 (big-ET-1) antibodies and uses thereof” (Regeneron Pharmaceuticals, Inc., priority 2012, dated 2017)
